Read-outs that look alike come from different tables or passages of the source.
Experiments:
yeast HSP90 = target: T1, yeast HSP90 (Saccharomyces cerevisiae, UniProt P02829); assay: Malachite green HSP90 ATPase assay; format: biochemical; conditions: 1 mM ATP, ±SD if n=3–5
T1 construct: made in house; host or cells: E. coli
Outline: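 E. coli-expressed yeast HSP90 ATPase activity measured as released inorganic phosphate by malachite green–molybdate colour (610 nm), with sodium citrate added to suppress non-enzymatic ATP hydrolysis. Assay buffer 100 mM Tris-HCl pH 7.4, 20 mM KCl, 6 mM MgCl2; compounds screened at 40 μM final.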

[1] = system: HCT116 human colon tumour cells; assay: 96 h growth inhibition assay (SRB), HCT116; format: cell-based; conditions: Homo sapiens, HCT-116; HCT116, 96 h
Method: The growth inhibition assay employed was based on that described previously (Kelland et al., 1993). HCT116 and HT29 human colon tumour cells (American Tissue Culture Collection) were seeded into 96-well tissue culture plates (approximately 1600–2000 cells per well) and allowed to attach for 36 hours. Eight wells were treated with a single concentration from a range of compound concentrations and incubated for 96 hours. Cells were fixed using ice cold 10% trichloroacetic acid (TCA). Plates were then washed five times with water, air dried, and stained with 0.4% sulphorhodamine B (SRB) in 1% acetic acid for 10 minutes. The SRB stain was solubilised in 10 mM Tris-HCl and the absorbance measured at 540 nm using a Titertek Multiscan MCC/340 MKII plate reader (Flow Laboratories, IEC, Basingstoke, N.H.). The absorbance values correspond to total protein content and are used as a measure of cell growth.

T1 sequence (P02829 whole entry, looked up): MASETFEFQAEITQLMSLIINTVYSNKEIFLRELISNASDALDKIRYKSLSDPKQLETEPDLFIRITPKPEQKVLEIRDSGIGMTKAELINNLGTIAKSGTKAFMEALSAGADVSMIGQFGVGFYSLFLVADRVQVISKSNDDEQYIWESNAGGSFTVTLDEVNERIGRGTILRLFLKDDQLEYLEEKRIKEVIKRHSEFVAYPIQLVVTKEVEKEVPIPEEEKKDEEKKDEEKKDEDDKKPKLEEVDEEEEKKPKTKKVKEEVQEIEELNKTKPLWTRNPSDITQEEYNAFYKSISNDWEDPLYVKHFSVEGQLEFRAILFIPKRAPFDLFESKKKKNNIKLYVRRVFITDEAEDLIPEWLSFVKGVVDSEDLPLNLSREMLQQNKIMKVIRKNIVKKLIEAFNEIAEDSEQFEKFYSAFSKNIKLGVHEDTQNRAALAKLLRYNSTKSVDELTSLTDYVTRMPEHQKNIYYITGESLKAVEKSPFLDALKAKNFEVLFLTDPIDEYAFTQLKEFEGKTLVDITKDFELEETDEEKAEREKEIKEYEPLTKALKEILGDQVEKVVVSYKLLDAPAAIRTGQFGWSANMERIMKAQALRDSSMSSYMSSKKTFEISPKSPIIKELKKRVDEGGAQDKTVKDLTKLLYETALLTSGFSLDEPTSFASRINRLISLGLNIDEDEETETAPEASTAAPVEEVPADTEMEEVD

| SMILES | IC50 (yeast HSP90; malachite green assay, read-out: HSP90 ATPase inhibition IC50) | IC50 [1] | IC50 (yeast HSP90; HSP90 ATPase inhibition IC50, malachite green assay) |
| --- | --- | --- | --- |
| Cc1[nH]nc(-c2ccc(O)cc2O)c1-c1ccc2c(c1)OCCO2 [CCT018157] | 60.5 ± 8 µM | 26 µM |  |
| CCc1cc(-c2n[nH]c(C)c2-c2ccc3c(c2)OCCO3)c(O)cc1O [CCT018159, 4-[4-(2,3-Dihydro-benzo[1,4]dioxin-6-yl)-5-methyl-1H-pyrazol-3-yl]-6-ethyl-benzene-1,3-diol] |  | 4.5 µM | 9.2 ± 0.65 µM |
